Reference: PubChem BioAssay AID1919007 (Molecular Pharmacology Branch, DTP, NCI, 2023)

Test system: A498 complex spheroids with HUVEC/MSC, growth
Test: Anticancer human tumor A498 cell line growth inhibition [AhR];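 also: seven day exposure starting three days after spheroid seeding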;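 as to viability, T/C: luminescence signal used as a surrogate for viable cells; luminescence viability scaled so 100% equals DMSO vehicle wells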
Settings: for IC50: curve of first compound; for viability, T/C: stronger effect = lower value; active = viability on the fitted dose curve at most 10% of control; inactive = the rest
Method in brief: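 Spheroids combined tumor cells with HUVEC endothelial cells and human MSCs as stroma. AhR antagonists were paired with standard or investigational drugs, each dosed in half-log steps down from near clinical Cmax, or from 10 microM where Cmax was unknown.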

[1] = second compound 0.1 µM, first compound 0.0316 µM
[2] = second compound 0.1 µM, first compound 0.1 µM
[3] = second compound 0.316 µM, first compound 0.0316 µM
[4] = second compound 0.316 µM, first compound 0.1 µM
[5] = second compound 1 µM, first compound 0.0316 µM
[6] = second compound 1 µM, first compound 0.1 µM
[7] = second compound 3.16 µM, first compound 0.0316 µM
[8] = second compound 3.16 µM, first compound 0.1 µM
[9] = second compound 10 µM, first compound 0.0316 µM
[10] = second compound 10 µM, first compound 0.1 µM

CC1(C)CCC(CN2CCN(c3ccc(C(=O)NS(=O)(=O)c4ccc(NCC5CCOCC5)c([N+](=O)[O-])c4)c(Oc4cnc5[nH]ccc5c4)c3)CC2)=C(c2ccc(Cl)cc2)C1 + Cc1cncc(-c2nc(NCCc3c[nH]c4ccccc34)c3ncn(C(C)C)c3n2)c1
inactive: viability, T/C [1] 88.5% | viability, T/C [2] 90% | viability, T/C (second compound 0.1 µM, first compound 0.316 µM) 85.3% | viability, T/C (second compound 0.1 µM, first compound 1 µM) 78.6% | viability, T/C (second compound 0.1 µM, first compound 3.16 µM) 72.3% | viability, T/C (second compound 0.1 µM, first compound 10 µM) 26% | viability, T/C [3] 89.2% | viability, T/C [4] 92.2% | viability, T/C (second compound 0.316 µM, first compound 0.316 µM) 95.1% | viability, T/C (second compound 0.316 µM, first compound 1 µM) 78.3% | viability, T/C (second compound 0.316 µM, first compound 3.16 µM) 71% | viability, T/C (second compound 0.316 µM, first compound 10 µM) 26.6% | viability, T/C [5] 84.7% | viability, T/C [6] 90.3% | viability, T/C (second compound 1 µM, first compound 0.316 µM) 87% | viability, T/C (second compound 1 µM, first compound 1 µM) 73.5% | viability, T/C (second compound 1 µM, first compound 3.16 µM) 66.9% | viability, T/C (second compound 1 µM, first compound 10 µM) 28.3% | viability, T/C [7] 43.6% | viability, T/C [8] 43.4% | viability, T/C (second compound 3.16 µM, first compound 0.316 µM) 48.5% | viability, T/C (second compound 3.16 µM, first compound 1 µM) 40.9% | viability, T/C (second compound 3.16 µM, first compound 3.16 µM) 39.6% | viability, T/C (second compound 3.16 µM, first compound 10 µM) 24.5%
< 31.6 nM: IC50 (second compound 3.16 µM) | IC50 (second compound 10 µM)
active: viability, T/C [9] 2.24% | viability, T/C [10] 2.27% | viability, T/C (second compound 10 µM, first compound 0.316 µM) 3.12% | viability, T/C (second compound 10 µM, first compound 1 µM) 4.57% | viability, T/C (second compound 10 µM, first compound 3.16 µM) 3.12% | viability, T/C (second compound 10 µM, first compound 10 µM) 5.62%
5320 nM: IC50 (second compound 0.316 µM)
5030 nM: IC50 (second compound 1 µM)
5370 nM: IC50 (second compound 0.1 µM)

CCN(c1cc(-c2ccc(CN3CCOCC3)cc2)cc(C(=O)NCc2c(C)cc(C)[nH]c2=O)c1C)C1CCOCC1 + Cc1cncc(-c2nc(NCCc3c[nH]c4ccccc34)c3ncn(C(C)C)c3n2)c1
inactive: viability, T/C (second compound 0.1 µM, first compound 0.00949 µM) 94% | viability, T/C (second compound 0.1 µM, first compound 0.03 µM) 97% | viability, T/C (second compound 0.1 µM, first compound 0.0949 µM) 90.2% | viability, T/C (second compound 0.1 µM, first compound 0.3 µM) 87.7% | viability, T/C (second compound 0.1 µM, first compound 0.949 µM) 97.7% | viability, T/C (second compound 0.1 µM, first compound 3 µM) 88.4% | viability, T/C (second compound 0.316 µM, first compound 0.00949 µM) 103% | viability, T/C (second compound 0.316 µM, first compound 0.03 µM) 94.2% | viability, T/C (second compound 0.316 µM, first compound 0.0949 µM) 101% | viability, T/C (second compound 0.316 µM, first compound 0.3 µM) 90% | viability, T/C (second compound 0.316 µM, first compound 0.949 µM) 97.4% | viability, T/C (second compound 0.316 µM, first compound 3 µM) 91.5% | viability, T/C (second compound 1 µM, first compound 0.00949 µM) 88.8% | viability, T/C (second compound 1 µM, first compound 0.03 µM) 91.4% | viability, T/C (second compound 1 µM, first compound 0.0949 µM) 86.1% | viability, T/C (second compound 1 µM, first compound 0.3 µM) 81.3% | viability, T/C (second compound 1 µM, first compound 0.949 µM) 82% | viability, T/C (second compound 1 µM, first compound 3 µM) 88.1% | viability, T/C (second compound 3.16 µM, first compound 0.00949 µM) 44.6% | viability, T/C (second compound 3.16 µM, first compound 0.03 µM) 45% | viability, T/C (second compound 3.16 µM, first compound 0.0949 µM) 47.2% | viability, T/C (second compound 3.16 µM, first compound 0.3 µM) 44.5% | viability, T/C (second compound 3.16 µM, first compound 0.949 µM) 45.7% | viability, T/C (second compound 3.16 µM, first compound 3 µM) 39.5%
< 9.49 nM: IC50 (second compound 3.16 µM) | IC50 (second compound 10 µM)
active: viability, T/C (second compound 10 µM, first compound 0.00949 µM) 4.35% | viability, T/C (second compound 10 µM, first compound 0.03 µM) 4.58% | viability, T/C (second compound 10 µM, first compound 0.0949 µM) 6.5% | viability, T/C (second compound 10 µM, first compound 0.3 µM) 4.8% | viability, T/C (second compound 10 µM, first compound 0.949 µM) 2.06% | viability, T/C (second compound 10 µM, first compound 3 µM) 1.26%
> 3000 nM: IC50 (second compound 0.1 µM) | IC50 (second compound 0.316 µM) | IC50 (second compound 1 µM)

Cn1ncnc1C1c2n[nH]c(=O)c3cc(F)cc(c23)NC1c1ccc(F)cc1 (stereo not given) + Cc1cncc(-c2nc(NCCc3c[nH]c4ccccc34)c3ncn(C(C)C)c3n2)c1
> 100 nM: IC50 (second compound 0.1 µM) | IC50 (second compound 0.316 µM) | IC50 (second compound 1 µM) | IC50 (second compound 3.16 µM)
< 0.316 nM: IC50 (second compound 10 µM)
active: viability, T/C (second compound 10 µM, first compound 0.000316 µM) 5.06% | viability, T/C (second compound 10 µM, first compound 0.001 µM) 6.23% | viability, T/C (second compound 10 µM, first compound 0.00316 µM) 6.28% | viability, T/C (second compound 10 µM, first compound 0.01 µM) 7.11% | viability, T/C [9] 6.12% | viability, T/C [10] 8.13%
inactive: viability, T/C (second compound 0.1 µM, first compound 0.000316 µM) 96.5% | viability, T/C (second compound 0.1 µM, first compound 0.001 µM) 96.6% | viability, T/C (second compound 0.1 µM, first compound 0.00316 µM) 96.6% | viability, T/C (second compound 0.1 µM, first compound 0.01 µM) 89% | viability, T/C [1] 87% | viability, T/C [2] 94.1% | viability, T/C (second compound 0.316 µM, first compound 0.000316 µM) 97.1% | viability, T/C (second compound 0.316 µM, first compound 0.001 µM) 99.2% | viability, T/C (second compound 0.316 µM, first compound 0.00316 µM) 92.9% | viability, T/C (second compound 0.316 µM, first compound 0.01 µM) 92.3% | viability, T/C [3] 95.2% | viability, T/C [4] 92.3% | viability, T/C (second compound 1 µM, first compound 0.000316 µM) 88.4% | viability, T/C (second compound 1 µM, first compound 0.001 µM) 98.9% | viability, T/C (second compound 1 µM, first compound 0.00316 µM) 91.2% | viability, T/C (second compound 1 µM, first compound 0.01 µM) 84.4% | viability, T/C [5] 85.5% | viability, T/C [6] 89.8% | viability, T/C (second compound 3.16 µM, first compound 0.000316 µM) 60.6% | viability, T/C (second compound 3.16 µM, first compound 0.001 µM) 63.6% | viability, T/C (second compound 3.16 µM, first compound 0.00316 µM) 65% | viability, T/C (second compound 3.16 µM, first compound 0.01 µM) 70.1% | viability, T/C [7] 59.8% | viability, T/C [8] 67.8%
